In brackets after ≈: the same amount, converted by molar mass. Like-named read-outs stand apart in the source and are kept apart here.
Legend:
M. tuberculosis Dxr = M. tuberculosis Dxr (Mycobacterium tuberculosis, UniProt P9WNS1); test: biochemical
Mtb H37Rv (ATCC 27294) = test: microbe, parasite or virus in culture; type: cell-based, Mycobacterium tuberculosis; conditions: for MIC: Mycobacterium tuberculosis
Acinetobacter = test: microbe, parasite or virus in culture; type: cell-based
E. coli k12 = test: microbe, parasite or virus in culture; type: cell-based
E. coli tolc = test: microbe, parasite or virus in culture; type: cell-based
B. anthracis = test: microbe, parasite or virus in culture; type: cell-based, Bacillus anthracis
E. faecalis = test: microbe, parasite or virus in culture; type: cell-based
S. aureus (MSSA) = test: microbe, parasite or virus in culture; type: cell-based
MRSA NRS 70 = test: microbe, parasite or virus in culture; type: cell-based, S. aureus
[1] = read-out: Mtb MIC (ug/mL) (7H9)
[2] = read-out: Mtb MIC (ug/mL) (GAST)

Chain of M. tuberculosis Dxr (P9WNS1 whole entry, looked up): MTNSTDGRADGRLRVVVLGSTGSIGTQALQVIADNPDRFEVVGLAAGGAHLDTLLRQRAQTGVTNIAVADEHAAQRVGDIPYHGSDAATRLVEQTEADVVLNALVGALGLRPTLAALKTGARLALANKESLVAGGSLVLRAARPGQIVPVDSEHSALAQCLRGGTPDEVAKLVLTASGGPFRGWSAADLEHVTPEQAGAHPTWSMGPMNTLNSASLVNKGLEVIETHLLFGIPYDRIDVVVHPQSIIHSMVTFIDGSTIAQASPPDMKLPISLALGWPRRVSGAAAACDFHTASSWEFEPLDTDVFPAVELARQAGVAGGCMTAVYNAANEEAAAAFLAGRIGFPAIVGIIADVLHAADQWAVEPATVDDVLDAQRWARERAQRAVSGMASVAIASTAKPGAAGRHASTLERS

CC(=O)N(CCCP(=O)(O)O)OCCc1ccccc1 [Compound 3, Sodium hydrogen 3-(N-(phenethyloxy)acetamido)propylphosphonate] gave an IC50 (M. tuberculosis Dxr; IC50 (μM)) of 96.4 µM.
In the case of CC(=O)N(CCCP(=O)(O)O)OCCCc1ccccc1 [Compound 4, Sodium hydrogen 3-(N-(3-phenylpropoxy)acetamido)propylphosphonate], the remaining activity at 100 µg/mL (M. tuberculosis Dxr; read-out: % Remaining Enzyme Activity at 100 μg/mL) is reported as 100%.
For CC(=O)N(CCCP(=O)(O)O)OCc1ccc(C(C)C)cc1 [Compound 5, Sodium hydrogen 3-(N-(4-isopropylbenzyloxy)acetamido)propylphosphonate], the IC50 (M. tuberculosis Dxr; IC50 (μM)) was 50.6 µM.
CCOP(=O)(CCN(O)C=O)OCC [Compound 5b] was tested, and the “MIC 7H9” value (Mtb H37Rv (ATCC 27294)) was over 500 µg/mL and the “MIC GAST/Fe” value (Mtb H37Rv (ATCC 27294)) was over 500 µg/mL.
For CCOP(=O)(CCCN(O)C=O)OCC [Compound 5c], the “MIC 7H9” value (Mtb H37Rv (ATCC 27294)) was 250 µg/mL (≈ 1050 µM).
In the case of CCOP(=O)(CCN(O)C(C)=O)OCC [Compound 5f], the “MIC 7H9” value (Mtb H37Rv (ATCC 27294)) is reported as over 500 µg/mL and the “MIC GAST/Fe” value (Mtb H37Rv (ATCC 27294)) is reported as over 500 µg/mL.
CC(=O)N(CCCP(=O)(O)O)OCC1CCCCC1 [Compound 6, Sodium hydrogen 3-(N-(cyclohexylmethoxy)acetamido)propylphosphonate] gave an IC50 (M. tuberculosis Dxr; IC50 (μM)) of 198 µM.
In the case of O=C(Cc1ccccc1)N(O)CCCP(=O)(O)O [Compound 7, Sodium hydrogen 3-(N-hydroxy-2-phenylacetamido)propylphosphonate], the IC50 (M. tuberculosis Dxr; IC50 (μM)) is reported as 7.5 µM.
Work on O=C(CCCc1ccccc1)N(O)CCCP(=O)(O)O [Compound 8, Sodium hydrogen 3-(N-hydroxy-4-phenylbutanamido)propylphosphonate] yielded an IC50 (M. tuberculosis Dxr; IC50 (μM)) of 3.1 µM.
Molecule O=C(C1CCCCC1)N(O)CCCP(=O)(O)O [Compound 9, Sodium hydrogen 3-(N-hydroxycyclohexanecarboxamido)propylphosphonate] has an IC50 (M. tuberculosis Dxr; IC50 (μM)) of 57.8 µM.
CCOP(=O)(CCCN(O)C(=O)c1ccccc1)OCC [Compound 9a] was tested, and the MIC (Mtb H37Rv (ATCC 27294); read-out: MIC 7H9 (μg/mL)) was over 500 µg/mL and the MIC (Mtb H37Rv (ATCC 27294); read-out: MIC GAST/Fe (μg/mL)) was 31.2 µg/mL (≈ 99.1 µM).
For CCOP(=O)(CCCN(O)C=O)OCC [Compound 10, Diethyl fosmidomycin], the “MIC Acinetobacter” value (Acinetobacter) was over 200 µg/mL, the “MIC E. coli k12” value (E. coli k12) was over 200 µg/mL and the “MIC E. coli tolc” value (E. coli tolc) was over 200 µg/mL. For the same molecule, the “MIC B. anthracis” value (B. anthracis) was over 200 µg/mL, the “MIC E. faecalis” value (E. faecalis) was over 200 µg/mL and the “MIC S. aureus (MSSA)” value (S. aureus (MSSA)) was over 200 µg/mL. The “MIC S. aureus (MRSA)” value (MRSA NRS 70) was over 200 µg/mL and the “MIC M. tuberculosis (H37Rv)” value (Mtb H37Rv (ATCC 27294)) was 400 µg/mL (≈ 1670 µM).
CCCCCCOP(=O)(CCCN(O)C(C)=O)OCCCCCC [Compound 21] was tested, and the “MIC M. tuberculosis (H37Rv)” value (Mtb H37Rv (ATCC 27294)) was 100 µg/mL (≈ 274 µM).
In the case of CCOC(=O)OC(C)OP(=O)(CCCN(O)C(C)=O)OC(C)OC(=O)OCC (stereo not drawn) [Compound 22], the “MIC Acinetobacter” value (Acinetobacter) is reported as over 200 µg/mL, the “MIC E. coli k12” value (E. coli k12) is reported as over 200 µg/mL and the “MIC E. coli tolc” value (E. coli tolc) is reported as 200 µg/mL (≈ 466 µM). For the same molecule, the “MIC B. anthracis” value (B. anthracis) was over 200 µg/mL, the “MIC E. faecalis” value (E. faecalis) was over 200 µg/mL and the “MIC S. aureus (MSSA)” value (S. aureus (MSSA)) was over 200 µg/mL. For the same molecule, the “MIC S. aureus (MRSA)” value (MRSA NRS 70) was over 200 µg/mL and the “MIC M. tuberculosis (H37Rv)” value (Mtb H37Rv (ATCC 27294)) was 400 µg/mL (≈ 932 µM).
With CCOP(=O)(CCCN(O)C(=O)C1CCCCC1)OCC [ERJ 112] the MIC (Mtb H37Rv (ATCC 27294); [1]) was over 200 µg/mL and the MIC (Mtb H37Rv (ATCC 27294); [2]) was 100 µg/mL (≈ 311 µM).
O=C(C1CCCCC1)N(O)CCCP(=O)([O-])O.[Na+] [ERJ 116] was tested, and the MIC (Mtb H37Rv (ATCC 27294); [1]) was over 200 µg/mL, the MIC (Mtb H37Rv (ATCC 27294); [2]) was over 200 µg/mL and the IC50 (M. tuberculosis Dxr; Mtb Dxr IC50 (ug/mL)) was 57.8 µM.
With CCOP(=O)(CCCN(O)C(=O)C1CC1)OCC [ERJ 119] the “Mtb MIC (ug/mL) (7H9)” value (Mtb H37Rv (ATCC 27294)) was >200 (7H9) >200 (GAST) ug/mL and the “Mtb MIC (ug/mL) (GAST)” value (Mtb H37Rv (ATCC 27294)) was >200 (7H9) >200 (GAST) ug/mL.
Work on O=C(C1CC1)N(O)CCCP(=O)([O-])O.[Na+] [ERJ 123] yielded an MIC (Mtb H37Rv (ATCC 27294); read-out: Mtb MIC (ug/mL)) of over 400 µg/mL.
In the case of CCOP(=O)(CCCN(O)C(C)=O)OCC [GSJ21], the “Mtb MIC” value (Mtb H37Rv (ATCC 27294)) is reported as over 200 µg/mL.
With CC(=O)N(O)CCCCP(=O)(O)O [GSJ54] the MIC (Mtb H37Rv (ATCC 27294); read-out: Mtb MIC (ug/mL)) was over 200 µg/mL and the IC50 (M. tuberculosis Dxr; Mtb Dxr IC50 (ug/mL)) was 13.2 µM.
Work on CCOP(=O)(CCCN(OCc1ccc(C(C)C)cc1)C(C)=O)OCC [GSJ70] yielded an MIC (Mtb H37Rv (ATCC 27294); [1]) of 400 µg/mL (≈ 1040 µM) and an MIC (Mtb H37Rv (ATCC 27294); [2]) of 200 µg/mL (≈ 519 µM).
For CCOP(=O)(CCCN(OCC1CCCCC1)C(C)=O)OCC [GSJ71], the MIC (Mtb H37Rv (ATCC 27294); [1]) was at least 400 µg/mL and the MIC (Mtb H37Rv (ATCC 27294); [2]) was 200 to 400 µg/mL (≈ 572 to 1140 µM).
CCOP(=O)(CCCN(OCc1ccc(-c2ccccc2)cc1)C(C)=O)OCC [GSJ72] was tested, and the MIC (Mtb H37Rv (ATCC 27294); [1]) was 200 µg/mL (≈ 477 µM) and the MIC (Mtb H37Rv (ATCC 27294); [2]) was 100 µg/mL (≈ 238 µM).
Work on CCOP(=O)(CCCN(OCc1ccc2ccccc2c1)C(C)=O)OCC [GSJ73] yielded an MIC (Mtb H37Rv (ATCC 27294); [1]) of 200 µg/mL (≈ 508 µM) and an MIC (Mtb H37Rv (ATCC 27294); [2]) of 100 µg/mL (≈ 254 µM).
CC(=O)N(CCCP(=O)(O)O)OCc1ccc(-c2ccccc2)cc1 [GSJ74] was tested, and the MIC (Mtb H37Rv (ATCC 27294); read-out: Mtb MIC (ug/mL)) was 25 to 50 µg/mL (≈ 68.8 to 138 µM) and the IC50 (M. tuberculosis Dxr; Mtb Dxr IC50 (ug/mL)) was 68.6 µM.
CC(=O)N(CCCP(=O)(O)O)OCC1CCCCC1 [GSJ75] was tested, and the MIC (Mtb H37Rv (ATCC 27294); read-out: Mtb MIC (ug/mL)) was over 200 µg/mL and the IC50 (M. tuberculosis Dxr; Mtb Dxr IC50 (ug/mL)) was 212 µM.
